Assay results: patent US9969617B2, “Material system containing endoperoxide with adaption of decomposition, and applications” (priority 2009, dated 2018)

How the values were obtained:
cancer cells = experiment: killing of cancer cells, cytostatic effect confirmed using the crystal violet test; format: cell-based; settings: endoperoxide in liposomes
From the text: A further molecule 22 forming endoperoxide has an additional hydroxyl group which with the cage wall can form hydrogen bridges (preferably in PVB nanoparticles, in PVB films or ethyl cellulose nanoparticles), which likewise causes an increase in the decomposition times.

[1] = PVB matrix, 37° C.
From the text: The entire decomposition curve is usually determined indirectly via the measurement of the fluorescence of the DMN molecules which reappear during decomposition of the endoperoxides.

| SMILES | killing of the cancer cells (cancer cells) | decomposition time of curve 27, factor longer than DMN in liquids ([1]; after renewed endoperoxide formation, slow component (curve 27)) [factor] | half-life from curve 24 greater than that for DMN in organic solvent ([1]; curve 24 versus DMN in organic solvent) | decomposition time from curve 25, factor greater ([1]; first decomposition, slow component (curve 25), compared with DMN in organic solvent) [factor] |
| --- | --- | --- | --- | --- |
| CC12C=CC(C)(OO1)c1ccccc12 [DMN endoperoxide, 1,4-dimethylnaphthalene endoperoxide] | not | > 30 | approximately 30% | ~6 |
| Cc1cccc2c1C1(C)C=CC2(C)OO1 (centres unmarked) [TMN endoperoxide] | killing of the cancer cells was ascertained | – | – | – |
